Measurements as given in ChEMBL document CHEMBL5584231, “Rational design of a new short anticancer peptide with good potential for cancer treatment” (Eur J Med Chem, 2024).
pIC50: −log10 of the molar value. Residues, ends and D or L forms follow the SMILES beside them.

Key:
[1] = test system: MCF7; assay: Cytotoxicity against human MCF7 cells assessed as inhibition of cell growth incubated for 1 hr by MTT assay; format: functional, cell-based; conditions: MCF7, 1 h
[2] = Therapeutic index, ratio of HC10 for mouse RBC to IC50 for cytotoxicity against human A549 cells; format: toxicity, cell-based; conditions: mouse RBC and A549 cells, read-out: TI
[3] = Cytotoxicity against RG cells (unknown origin) assessed as inhibition of cell growth incubated for 1 hr by MTT assay; format: functional, cell-based
[4] = test system: A549; assay: Cytotoxicity against human A549 cells assessed as inhibition of cell growth incubated for 1 hr by MTT assay; format: functional, cell-based; conditions: A549, 1 h
[5] = test system: HeLa; assay: Cytotoxicity against human HeLa cells assessed as inhibition of cell growth incubated for 1 hr by MTT assay; format: functional, cell-based
[6] = Therapeutic index, ratio of HC10 for mouse RBC to IC50 for cytotoxicity against human HeLa cells; format: toxicity, cell-based; conditions: mouse RBC and HeLa cells, read-out: TI
[7] = Cytotoxicity against HK-2 cells assessed as inhibition of cell growth incubated for 1 hr by MTT assay; format: toxicity, cell-based; conditions: human
[8] = Therapeutic index, ratio of HC10 for mouse RBC to IC50 for cytotoxicity against RG cells (unknown origin); format: toxicity, cell-based; conditions: mouse RBC and RG cells, read-out: TI
[9] = Therapeutic index, ratio of HC10 for mouse RBC to IC50 for cytotoxicity against human MCF7 cells; format: toxicity, cell-based; conditions: mouse RBC and MCF7 cells, read-out: TI

SMILES | pIC50 [1] | selectivity ratio [2] | pIC50 [3] | pIC50 [4] | pIC50 [5] | selectivity ratio [6] | IC50 at 1 h [7] [µM] | selectivity ratio [8] | selectivity ratio [9]
CC(C)C[C@H](NC(=O)[C@H](CC(C)C)NC(=O)[C@H](CCCCN)NC(=O)[C@H](CCCCN)NC(=O)[C@H](CC(C)C)NC(=O)[C@H](CC(C)C)NC(=O)[C@H](CCCCN)NC(=O)[C@H](CCCCN)NC(=O)[C@H](CC(C)C)NC(=O)[C@H](CCC(=O)O)NC(=O)[C@H](CCCCN)NC(=O)[C@H](CCCCN)NC(=O)[C@H](CC(C)C)NC(=O)[C@@H](N)CC(C)C)C(N)=O (H-LLKKELKKLLKKLL-NH2) | 4.67 | 9.94 | 4.62 | 4.76 | 4.84 | 12 | 37.3 | 7.14 | 8.02
CC(C)C[C@H](NC(=O)[C@H](CC(C)C)NC(=O)[C@H](CCCCN)NC(=O)[C@H](CCCCN)NC(=O)[C@H](CC(C)C)NC(=O)[C@H](CC(C)C)NC(=O)[C@H](CCCCN)NC(=O)[C@H](CCCCN)NC(=O)[C@H](CCC(=O)O)NC(=O)[C@H](CC(C)C)NC(=O)[C@H](CCCCN)NC(=O)[C@H](CCCCN)NC(=O)[C@H](CC(C)C)NC(=O)[C@@H](N)CC(C)C)C(N)=O (H-LLKKLEKKLLKKLL-NH2) | 3.69 | 0.943 | 3.38 | 3.28 | 3.98 | 4.8 | 264 | 1.2 | 2.47
CC(C)C[C@H](NC(=O)[C@H](CC(C)C)NC(=O)[C@H](CCCCN)NC(=O)[C@H](CCCCN)NC(=O)[C@H](CC(C)C)NC(=O)[C@H](CC(C)C)NC(=O)[C@H](CCCCN)NC(=O)[C@H](CCC(=O)O)NC(=O)[C@H](CC(C)C)NC(=O)[C@H](CC(C)C)NC(=O)[C@H](CCCCN)NC(=O)[C@H](CCCCN)NC(=O)[C@H](CC(C)C)NC(=O)[C@@H](N)CC(C)C)C(N)=O (H-LLKKLLEKLLKKLL-NH2) | 5.33 | 2.49 | 5.35 | 5.41 | 5.54 | 3.41 | 4.9 | 2.18 | 2.1
CC(C)C[C@H](NC(=O)[C@H](CC(C)C)NC(=O)[C@H](CCCCN)NC(=O)[C@H](CCCCN)NC(=O)[C@H](CC(C)C)NC(=O)[C@H](CC(C)C)NC(=O)[C@H](CCC(=O)O)NC(=O)[C@H](CCCCN)NC(=O)[C@H](CC(C)C)NC(=O)[C@H](CC(C)C)NC(=O)[C@H](CCCCN)NC(=O)[C@H](CCCCN)NC(=O)[C@H](CC(C)C)NC(=O)[C@@H](N)CC(C)C)C(N)=O (H-LLKKLLKELLKKLL-NH2) | 5.40 | 1.39 | 5.32 | 5.43 | 5.34 | 1.15 | 3.8 | 1.1 | 1.32
CC(C)C[C@H](NC(=O)[C@H](CC(C)C)NC(=O)[C@H](CCCCN)NC(=O)[C@H](CCCCN)NC(=O)[C@H](CC(C)C)NC(=O)[C@H](CCC(=O)O)NC(=O)[C@H](CCCCN)NC(=O)[C@H](CCCCN)NC(=O)[C@H](CC(C)C)NC(=O)[C@H](CC(C)C)NC(=O)[C@H](CCCCN)NC(=O)[C@H](CCCCN)NC(=O)[C@H](CC(C)C)NC(=O)[C@@H](N)CC(C)C)C(N)=O (H-LLKKLLKKELKKLL-NH2) | 3.74 | 1.04 | 3.66 | 3.32 | 3.92 | 4.18 | 146 | 2.3 | 2.76
CC(C)C[C@H](NC(=O)[C@H](CC(C)C)NC(=O)[C@H](CCCCN)NC(=O)[C@H](CCCCN)NC(=O)[C@H](CCC(=O)O)NC(=O)[C@H](CC(C)C)NC(=O)[C@H](CCCCN)NC(=O)[C@H](CCCCN)NC(=O)[C@H](CC(C)C)NC(=O)[C@H](CC(C)C)NC(=O)[C@H](CCCCN)NC(=O)[C@H](CCCCN)NC(=O)[C@H](CC(C)C)NC(=O)[C@@H](N)CC(C)C)C(N)=O (H-LLKKLLKKLEKKLL-NH2) | 4.01 | 5.74 | 4.10 | 4.06 | 4.36 | 11.4 | 92.5 | 6.34 | 5.15
CC(C)C[C@H](NC(=O)[C@H](CC(C)C)NC(=O)[C@H](CCCCN)NC(=O)[C@H](CCC(=O)O)NC(=O)[C@H](CC(C)C)NC(=O)[C@H](CC(C)C)NC(=O)[C@H](CCCCN)NC(=O)[C@H](CCCCN)NC(=O)[C@H](CC(C)C)NC(=O)[C@H](CC(C)C)NC(=O)[C@H](CCCCN)NC(=O)[C@H](CCCCN)NC(=O)[C@H](CC(C)C)NC(=O)[C@@H](N)CC(C)C)C(N)=O (H-LLKKLLKKLLEKLL-NH2) | 5.12 | 3.48 | 5.24 | 5.30 | 5.26 | 3.15 | 4.49 | 3.04 | 2.28
CC(C)C[C@H](NC(=O)[C@H](CC(C)C)NC(=O)[C@H](CCC(=O)O)NC(=O)[C@H](CCCCN)NC(=O)[C@H](CC(C)C)NC(=O)[C@H](CC(C)C)NC(=O)[C@H](CCCCN)NC(=O)[C@H](CCCCN)NC(=O)[C@H](CC(C)C)NC(=O)[C@H](CC(C)C)NC(=O)[C@H](CCCCN)NC(=O)[C@H](CCCCN)NC(=O)[C@H](CC(C)C)NC(=O)[C@@H](N)CC(C)C)C(N)=O (H-LLKKLLKKLLKELL-NH2) | 4.93 | 0.474 | 5.21 | 4.96 | 4.83 | 0.352 | 10.8 | 0.838 | 0.438
CC(C)C[C@H](NC(=O)[C@H](CCC(=O)O)NC(=O)[C@H](CCCCN)NC(=O)[C@H](CCCCN)NC(=O)[C@H](CC(C)C)NC(=O)[C@H](CC(C)C)NC(=O)[C@H](CCCCN)NC(=O)[C@H](CCCCN)NC(=O)[C@H](CC(C)C)NC(=O)[C@H](CC(C)C)NC(=O)[C@H](CCCCN)NC(=O)[C@H](CCCCN)NC(=O)[C@H](CC(C)C)NC(=O)[C@@H](N)CC(C)C)C(N)=O (H-LLKKLLKKLLKKEL-NH2) | 4.00 | 5.86 | 4.12 | 4.12 | 4.49 | 13.7 | 73 | 5.81 | 4.38
CC(C)C[C@H](NC(=O)[C@H](CCCCN)NC(=O)[C@H](CCCCN)NC(=O)[C@H](CC(C)C)NC(=O)[C@H](CC(C)C)NC(=O)[C@H](CCCCN)NC(=O)[C@H](CCCCN)NC(=O)[C@H](CC(C)C)NC(=O)[C@H](CC(C)C)NC(=O)[C@H](CCCCN)NC(=O)[C@H](CCCCN)NC(=O)[C@H](CC(C)C)NC(=O)[C@@H](N)CC(C)C)C(=O)N[C@@H](CC(=O)O)C(N)=O (H-LLKKLLKKLLKKLD-NH2) | 4.51 | 20 | 4.48 | 4.73 | 4.92 | 31.1 | 50.3 | 11.4 | 12.2
